Source: US20040052750A1, “Compositions for prevention and alleviation of skin wrinkles” (priority 2000, published 2004)
Counter-ions that a name gives are not always drawn.

What was measured:
[1] = system: hairless mice; assay: Inhibiting the generation of wrinkles in hairless mice (simulated sunlight); assay type: in vivo; conditions: 10 per group
Experimental: 6-week hairless mice were placed into 21 experimental groups and 3 control groups, with 10 rats per group. […] The experimental protocol in detail is as follows. Hairless mice were radiated using simulated sunlight at a dose of 2 MED (double Minimal Erythema Dose) 3 days a week for […], thereby generating wrinkles. Respective active ingredients or the solvent only were applied twice every day (specifically, on radiation days, the application was performed at 30 min before and after the radiation), at a volume of 100 μl each for 10 weeks from the first radiation day. Degrees of inhibition of generated wrinkles were determined. The determination was performed by visual observation with naked eyes and photography.

[2] = system: hairless mice; assay: Alleviating photo-induced wrinkles in hairless mice; assay type: in vivo; conditions: twice a day for 6 weeks, 10 per group
Experimental: Mice were placed into 21 experimental groups and 3 control groups, with 10 rats per group. […] The experimental protocol is as follows. Hairless mice were radiated using a simulated sunlight at a dose of 2 MED (double Minimal Erythema Dose) 3 days a week for 10 weeks, thereby generating wrinkles. Then, respective active ingredients or the solvent only were applied at a volume of 100 μl each, twice a day for 6 weeks. Degrees of wrinkle reduction were determined. The determination was performed by visually observing the compound-applied region with naked eyes, and the region was photographed. The degrees of alleviation of wrinkles in the compound-treatment groups (experimental groups) were compared with those of the control group and were determined as one of 4 stages, that is, none (Score 0), slight (Score 1), moderate (Score 2) and high (Score 3), and the corresponding mice were counted.

[3] = system: rat skin; assay: Promotion of collagen production in rat skin (hydroxyproline in implanted PVA sponge); assay type: in vivo, SD rats; conditions: 200 μl every day for 10 days, control = 100%
Experimental: In brief, 5-week male SD rats were grouped with 5 rats per group. The rats were each incised 1 cm in the center of their abdomens and PVA sponges (Unipoint ind.) were inserted therein. After suturing, as for experimental groups, respective active ingredients to be examined were applied to the PVA sponge-embeded regions i n a volume o f 200 μl every day for 10 days. Upon autopsy, the PVA sponge was removed to quantify hydroxyproline. The PVA sponge was added with 4 ml of 6 N HCl, hydrolized at 130° C. for 3 hours and was subjected to complete drying. 50 μl of methanol was added and the solution was incubated at 110° C. until HCl was removed. 1.2 ml of 50% isopropanol was added to dissolve the remaining precipitate. 200 μl of chloramine-T (sodium p-toluensulfochloramide trihydrate) solution was added while stirring, and let stand for 10 min. After adding 1.2 ml of Ehrlich reagent and mixing, the solution was incubated at 50° C. for 90 min. The resulting solution was cooled to room temperature and absorbance at 558 nm was measured. Hydroxyproline standard solutions were prepared by dissolving 1 mg hydroxyproline in 1 ml HCl and diluting it to concentrations of 0, 0.2, 0.4, 0.8, 1 mg each relative to 25 μl of 6 N HCl. The standard solutions were hydrolyzed at 130° C. for 3 hours. The quantified value of hydroxyproline, relative to hydroxyproline value (100%) of the control group which was applied with solvent only, are shown in Table 2.

[4] = system: fibroblasts derived from a human; assay: Promoting collagen production in fibroblasts (3H-proline incorporation into collagenase-sensitive protein); assay type: cell-based; conditions: control = 100%
Experimental: The experimental protocol in detail is as follows.
Human-derived fibroblasts were transferred to a 24 well plate and cultured in a medium containing 10% fetal bovine serum (FBS) for 24 hours, followed by washing twice with phosphate buffered saline. […] After the incubation was terminated, cells from each group were harvested and two fractions of each culture were prepared. One fraction from each culture was treated with collagenase. To all fractions was added trichloroacetic acid to precipitate proteins. The amount of radioactivity incorporated into collagenase-sensitive protein was measured and compared with that of the other fraction which was not treated with collagenase. The difference in radioactivity was attributed to the promoting effect of the compound.

Row | SMILES | Inhibition of wrinkles, Score 0 (none) ([1]; 10^-3 M) | Inhibition of wrinkles, Score 1 (slight) ([1]; 10^-3 M) | Inhibition of wrinkles, Score 2 (moderate) ([1]; 10^-3 M) | Inhibition of wrinkles, Score 3 (high) ([1]; 10^-3 M) | Inhibition of wrinkles, Score 0 (none) ([1]; 10^-5 M) | Inhibition of wrinkles, Score 1 (slight) ([1]; 10^-5 M) | Inhibition of wrinkles, Score 2 (moderate) ([1]; 10^-5 M) | Inhibition of wrinkles, Score 3 (high) ([1]; 10^-5 M) | Inhibition of wrinkles, Score 0 (none) ([1]; 10^-8 M) | Inhibition of wrinkles, Score 1 (slight) ([1]; 10^-8 M) | Inhibition of wrinkles, Score 2 (moderate) ([1]; 10^-8 M) | Inhibition of wrinkles, Score 3 (high) ([1]; 10^-8 M) | Reduction of wrinkles, Score 0 (none) ([2]; 10^-3 M) | Reduction of wrinkles, Score 1 (slight) ([2]; 10^-3 M) | Reduction of wrinkles, Score 2 (moderate) ([2]; 10^-3 M) | Reduction of wrinkles, Score 3 (high) ([2]; 10^-3 M) | Reduction of wrinkles, Score 0 (none) ([2]; 10^-5 M) | Reduction of wrinkles, Score 1 (slight) ([2]; 10^-5 M) | Reduction of wrinkles, Score 2 (moderate) ([2]; 10^-5 M) | Reduction of wrinkles, Score 3 (high) ([2]; 10^-5 M) | other results
1 | CCCC(CCC)C(=O)O [Valproic acid] | 0 number of mice | 0 number of mice | 2 number of mice | 8 number of mice | 0 number of mice | 1 number of mice | 2 number of mice | 7 number of mice | 0 number of mice | 1 number of mice | 1 number of mice | 8 number of mice | 0 number of mice | 0 number of mice | 2 number of mice | 8 number of mice | 0 number of mice | 1 number of mice | 2 number of mice | 7 number of mice | Reduction of wrinkles, Score 0 (none) ([2]; 10^-8 M): 0 number of mice; Reduction of wrinkles, Score 1 (slight) ([2]; 10^-8 M): 1 number of mice; Reduction of wrinkles, Score 2 (moderate) ([2]; 10^-8 M): 2 number of mice; Reduction of wrinkles, Score 3 (high) ([2]; 10^-8 M): 7 number of mice; Effect of promoting collagen production in animal skin (hydroxyproline value vs control) ([3]; 10^-5 M): 178.13%; Effect of promoting collagen production in animal skin (hydroxyproline value vs control) ([3]; 10^-6 M): 157.72%; Effect of promoting collagen production in animal skin (hydroxyproline value vs control) ([3]; 10^-7 M): 139.24%; Effect of promoting collagen production in animal skin (hydroxyproline value vs control) ([3]; 10^-8 M): 128.05%; Effect of promoting collagen production in fibroblasts (rate of collagen production) ([4]; 10^-5 M): 370.21%; Effect of promoting collagen production in fibroblasts (rate of collagen production) ([4]; 10^-6 M): 332.11%; Effect of promoting collagen production in fibroblasts (rate of collagen production) ([4]; 10^-7 M): 283.24%; Effect of promoting collagen production in fibroblasts (rate of collagen production) ([4]; 10^-8 M): 201.13%
2 | COc1ccc(CCN(C)CCCC(C#N)(c2ccc(OC)c(OC)c2)C(C)C)cc1OC (stereo not shown) [Verapamil HCl] | 0 number of mice | 0 number of mice | 1 number of mice | 9 number of mice | 0 number of mice | 1 number of mice | 2 number of mice | 7 number of mice | 0 number of mice | 1 number of mice | 1 number of mice | 8 number of mice | 0 number of mice | 1 number of mice | 2 number of mice | 7 number of mice | 0 number of mice | 2 number of mice | 1 number of mice | 7 number of mice | Reduction of wrinkles, Score 0 (none) ([2]; 10^-8 M): 0 number of mice; Reduction of wrinkles, Score 1 (slight) ([2]; 10^-8 M): 2 number of mice; Reduction of wrinkles, Score 2 (moderate) ([2]; 10^-8 M): 2 number of mice; Reduction of wrinkles, Score 3 (high) ([2]; 10^-8 M): 6 number of mice; Effect of promoting collagen production in animal skin (hydroxyproline value vs control) ([3]; 10^-5 M): 183.32%; Effect of promoting collagen production in animal skin (hydroxyproline value vs control) ([3]; 10^-6 M): 167.06%; Effect of promoting collagen production in animal skin (hydroxyproline value vs control) ([3]; 10^-7 M): 147.39%; Effect of promoting collagen production in animal skin (hydroxyproline value vs control) ([3]; 10^-8 M): 135.63%; Effect of promoting collagen production in fibroblasts (rate of collagen production) ([4]; 10^-5 M): 355.12%; Effect of promoting collagen production in fibroblasts (rate of collagen production) ([4]; 10^-6 M): 331.09%; Effect of promoting collagen production in fibroblasts (rate of collagen production) ([4]; 10^-7 M): 280.23%; Effect of promoting collagen production in fibroblasts (rate of collagen production) ([4]; 10^-8 M): 183.25%
